Consider 16 compounds from patent publication US11365188B2, “JAK inhibitors” (priority 2018, dated 2022).

pIC50: −log10 of the molar value.

Holding throughout (format): biochemical
One assay addresses JAK1 (Homo sapiens, UniProt P23458). Nature of the assay: JAK Kinase Assay (JAK1, Caliper EZ Reader, fluoresceinated peptide). The conditions noted are these: ATP 76.5 μM; JAK1 10 nM; 120 minutes at room temperature; read-out: JAK1 inhibition. The protocol:
JAK Kinase Assay 384-well plates in the left foot butoxy measured progress. The final assay volume was 25 μL, 250 nL 100× compounds, 10 μL enzyme mix and 15 μL substrate mix (fluoresceinated peptide and ATP) in assay buffer (20 mM HEPES (pH 7.5), 10 mM MgCl2, […], 0.5 mM EGTA and 2 mM DTT) prepared as test compound. By mixing the JAK1 with substrates and test compounds to start the reaction. There action mixture was incubated for 120 minutes at room temperature, then added 30 μL stop buffer for each sample to terminate the reaction with 50 mM EDTA. After termination of the kinase reaction, the proportion of phosphorylated product was determined as a fraction of total peptide substrate using Caliper EZ Reader II. Inhibition data were calculated by comparison with 100% of the reaction mixture without enzyme inhibition and vehicle-only reaction mixture billion % inhibition compared. The final concentration of reagents in the assays is: ATP, 76.5 μM; JAK1 fluorescent peptide (5-FAM-EEPLYWSFPAKKK-CONH2), 3 μM; JAK1, 10 nM, and DMSO, 1%. Dose response curve were generated to determine the concentration required for IC50 of JAK activity.

The target of a further assay is T1, JAK3 (Homo sapiens, UniProt P52333).
T1 sequence (P52333 1-1124): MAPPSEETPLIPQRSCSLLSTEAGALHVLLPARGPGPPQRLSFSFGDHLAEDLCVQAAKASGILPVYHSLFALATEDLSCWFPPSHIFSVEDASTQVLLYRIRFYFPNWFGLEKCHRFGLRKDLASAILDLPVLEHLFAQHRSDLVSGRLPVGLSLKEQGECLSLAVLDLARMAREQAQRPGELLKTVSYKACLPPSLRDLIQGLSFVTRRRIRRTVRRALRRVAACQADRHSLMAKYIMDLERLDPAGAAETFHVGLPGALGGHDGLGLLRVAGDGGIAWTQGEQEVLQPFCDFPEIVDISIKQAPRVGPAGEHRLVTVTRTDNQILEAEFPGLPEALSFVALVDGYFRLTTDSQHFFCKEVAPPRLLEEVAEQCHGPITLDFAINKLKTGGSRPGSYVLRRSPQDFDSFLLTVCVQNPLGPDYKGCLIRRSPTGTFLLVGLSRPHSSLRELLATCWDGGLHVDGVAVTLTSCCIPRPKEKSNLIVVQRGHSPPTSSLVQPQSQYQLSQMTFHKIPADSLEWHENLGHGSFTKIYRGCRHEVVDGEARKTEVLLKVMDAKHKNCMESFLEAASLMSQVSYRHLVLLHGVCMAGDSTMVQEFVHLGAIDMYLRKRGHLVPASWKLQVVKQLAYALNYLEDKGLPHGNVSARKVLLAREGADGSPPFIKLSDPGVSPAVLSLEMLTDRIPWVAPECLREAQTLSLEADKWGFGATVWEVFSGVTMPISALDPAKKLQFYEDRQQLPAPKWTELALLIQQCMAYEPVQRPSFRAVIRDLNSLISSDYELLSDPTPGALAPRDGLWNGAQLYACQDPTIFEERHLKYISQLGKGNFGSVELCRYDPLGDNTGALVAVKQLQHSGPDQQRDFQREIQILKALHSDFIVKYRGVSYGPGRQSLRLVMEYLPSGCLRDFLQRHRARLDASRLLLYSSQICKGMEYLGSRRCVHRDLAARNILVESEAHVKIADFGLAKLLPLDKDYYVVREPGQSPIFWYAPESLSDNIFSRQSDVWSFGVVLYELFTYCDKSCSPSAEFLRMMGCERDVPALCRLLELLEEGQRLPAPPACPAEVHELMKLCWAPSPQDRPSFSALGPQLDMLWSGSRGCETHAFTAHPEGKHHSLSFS
Nature of the assay: JAK3 Assay (Caliper EZ Reader, fluoresceinated peptide). The conditions noted are these: ATP 3.5 μM; JAK3 0.5 nM; 30 minutes at room temperature; read-out: JAK3 inhibition. As for the experimental part: JAK3 Assay 384-well plates in the left foot butoxy measured progress. The final assay volume was 25 μL, 250 nL 100× compounds, 10 μL enzyme mix and 15 μL substrate mix (fluoresceinated peptide and ATP) in assay buffer (50 mM HEPES (pH 7.5), 10 mM MgCl2, 0.01% TritonX-100, 0.01% Brij35, 0.5 mM EGTA and 2 mM DTT) prepared as test compound. By mixing the JAK3 with substrates and test compounds to start the reaction. The reaction mixture was incubated for 30 minutes at room temperature, then added 30 μL stop buffer for each sample to terminate the reaction with 50 mM EDTA. After termination of the kinase reaction, the proportion of phosphorylated product was determined as a fraction of total peptide substrate using Caliper EZ Reader II. Inhibition data were calculated by comparison with 100% of the reaction mixture without enzyme inhibition and vehicle-only reaction mixture billion % inhibition compared. The final concentration of reagents in the assays is: ATP, 3.5 μM; JAK3 fluorescent peptide (5-FAM-EEPLYWSFPAKKK-CONH2), 3 μM; JAK3, 0.5 nM; and DMSO, 1%. Dose response curve were generated to determine the concentration required for IC50 of JAK3 activity.

The target of the next assay is JAK2 (Homo sapiens, UniProt O60674). Nature of the assay: JAK2 Assay (Caliper EZ Reader, fluoresceinated peptide). The conditions noted are these: ATP 11.4 μM; JAK2 0.25 nM; 15 minutes at room temperature; read-out: JAK2 inhibition. As for the experimental part:
JAK2 Assay 384-well plates in the left foot butoxy measured progress. The final assay volume was 25 μL, 250 nL 100× compounds, 10 μL enzyme mix and 15 μL substrate mix (fluoresceinated peptide and ATP) in assay buffer (50 mM HEPES (pH 7.5), 10 mM MgCl2, 0.01% TritonX-100, 0.01% Brij35, 0.5 mM EGTA and 2 mM DTT) prepared as test compound By mixing the JAK2 with substrates and test compounds to start the reaction. The reaction mixture was incubated for 15 minutes at room temperature, then added 30 μL stop buffer for each sample to terminate the reaction with 50 mM EDTA. After termination of the kinase reaction, the proportion of phosphorylated product was determined as a fraction of total peptide substrate using Caliper EZ Reader 1 Inhibition data were calculated by comparison with 100% of the reaction mixture without enzyme inhibition and vehicle-only reaction mixture billion % inhibition compared. The final concentration of reagents in the assays is: ATP, 11.4 μM; JAK2 fluorescent peptide (5-FAM-EEPLYWSFPAKKK-CONH2), 3 μM; JAK2, 0.25 nM; and DMSO, 1%. Dose response curve were generated to determine the concentration required for IC50 of JAK2 activity.

Sequence of JAK1 (P23458 whole entry, species assumed): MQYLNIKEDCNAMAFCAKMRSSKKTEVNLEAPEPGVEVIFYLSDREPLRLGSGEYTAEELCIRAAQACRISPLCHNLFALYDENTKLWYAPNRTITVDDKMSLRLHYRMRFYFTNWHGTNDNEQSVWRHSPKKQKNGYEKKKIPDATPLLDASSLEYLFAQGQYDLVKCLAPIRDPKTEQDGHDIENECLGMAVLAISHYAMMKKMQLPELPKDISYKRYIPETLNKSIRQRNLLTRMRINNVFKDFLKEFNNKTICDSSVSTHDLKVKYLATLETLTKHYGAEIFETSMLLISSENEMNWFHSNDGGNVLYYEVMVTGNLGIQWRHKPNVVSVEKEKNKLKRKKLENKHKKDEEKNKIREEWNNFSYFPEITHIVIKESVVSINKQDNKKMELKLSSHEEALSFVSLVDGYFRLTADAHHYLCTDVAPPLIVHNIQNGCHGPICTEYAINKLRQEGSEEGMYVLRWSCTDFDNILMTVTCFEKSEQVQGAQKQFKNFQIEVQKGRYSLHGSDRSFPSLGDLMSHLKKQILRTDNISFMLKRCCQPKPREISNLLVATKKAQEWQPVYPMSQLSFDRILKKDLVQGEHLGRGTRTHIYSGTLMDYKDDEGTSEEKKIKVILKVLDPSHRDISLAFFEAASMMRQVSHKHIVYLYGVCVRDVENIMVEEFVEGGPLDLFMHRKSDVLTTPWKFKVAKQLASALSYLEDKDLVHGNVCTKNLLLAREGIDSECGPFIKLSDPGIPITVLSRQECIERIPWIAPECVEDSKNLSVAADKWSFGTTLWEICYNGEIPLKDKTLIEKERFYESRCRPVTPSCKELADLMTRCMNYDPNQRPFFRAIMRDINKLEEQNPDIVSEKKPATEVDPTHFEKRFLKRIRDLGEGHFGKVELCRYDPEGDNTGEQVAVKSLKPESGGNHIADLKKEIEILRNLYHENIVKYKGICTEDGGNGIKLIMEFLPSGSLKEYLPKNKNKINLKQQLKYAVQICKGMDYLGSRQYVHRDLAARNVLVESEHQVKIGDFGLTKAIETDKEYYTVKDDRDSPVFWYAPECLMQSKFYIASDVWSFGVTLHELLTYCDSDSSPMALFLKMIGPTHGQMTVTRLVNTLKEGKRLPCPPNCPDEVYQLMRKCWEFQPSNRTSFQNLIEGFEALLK
Sequence of JAK2 (O60674 whole entry, species assumed): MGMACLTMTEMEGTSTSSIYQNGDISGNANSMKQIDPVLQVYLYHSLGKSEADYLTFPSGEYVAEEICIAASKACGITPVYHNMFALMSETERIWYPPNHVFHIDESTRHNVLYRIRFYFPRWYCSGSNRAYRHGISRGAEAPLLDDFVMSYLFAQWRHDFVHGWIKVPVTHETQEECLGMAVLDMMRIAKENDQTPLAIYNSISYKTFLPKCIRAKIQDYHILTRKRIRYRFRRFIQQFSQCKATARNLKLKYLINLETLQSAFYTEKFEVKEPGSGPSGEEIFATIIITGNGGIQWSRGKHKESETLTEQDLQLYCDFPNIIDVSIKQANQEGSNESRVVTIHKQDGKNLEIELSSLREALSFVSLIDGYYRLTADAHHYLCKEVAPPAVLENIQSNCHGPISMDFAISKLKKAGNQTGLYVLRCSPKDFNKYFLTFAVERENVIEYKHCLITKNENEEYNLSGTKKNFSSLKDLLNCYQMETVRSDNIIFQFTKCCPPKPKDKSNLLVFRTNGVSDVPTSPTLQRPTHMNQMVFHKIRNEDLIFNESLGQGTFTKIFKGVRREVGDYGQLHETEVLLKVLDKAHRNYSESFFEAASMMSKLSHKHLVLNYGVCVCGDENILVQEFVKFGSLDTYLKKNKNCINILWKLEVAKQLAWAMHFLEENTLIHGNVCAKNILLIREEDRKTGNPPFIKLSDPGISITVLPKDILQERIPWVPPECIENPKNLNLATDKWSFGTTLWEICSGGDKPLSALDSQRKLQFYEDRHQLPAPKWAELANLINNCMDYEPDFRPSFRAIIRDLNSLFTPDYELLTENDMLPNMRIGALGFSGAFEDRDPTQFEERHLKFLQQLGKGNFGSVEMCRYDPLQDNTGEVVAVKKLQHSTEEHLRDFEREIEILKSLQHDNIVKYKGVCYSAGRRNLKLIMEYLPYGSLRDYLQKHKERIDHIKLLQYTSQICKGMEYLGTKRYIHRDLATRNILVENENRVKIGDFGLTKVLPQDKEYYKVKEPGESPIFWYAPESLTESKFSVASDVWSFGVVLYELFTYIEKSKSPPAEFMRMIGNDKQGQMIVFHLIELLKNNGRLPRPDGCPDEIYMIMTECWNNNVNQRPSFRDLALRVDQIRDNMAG

For the compound `CN(c1ncnc2[nH]ccc12)C1CC2(C1)CN(C(=O)CC#N)C2` [Compound 2, 3-(6-(methyl(7H-pyrrolo[2,3-d]pyrimidin-4-yl)amino)-2-azaspiro[3.3]heptan-2-yl)-3-oxopropanenitrile], the pIC50 at JAK1 was 6.00 to 7.00; on JAK3, 5.00 to 6.00; on JAK2, 6.00 to 7.00.
`CN(c1ncnc2[nH]ccc12)C1CC2(C1)CN(C(=O)CO)C2` [Compound 3, 2-hydroxy-1-(6-(methyl(7H-pyrrolo[2,3-d]pyrimidin-4-yl)amino)-2-azaspiro[3.3]heptan-2-yl)ethanone]: the pIC50 on JAK1 was 6.00 to 7.00; on JAK3, 5.00 to 6.00; at JAK2, 6.00 to 7.00.
For `CC(=O)N1CC2(CC(N(C)c3ncnc4[nH]ccc34)C2)C1` [Compound 4, 1-(6-(methyl(7H-pyrrolo[2,3-d]pyrimidin-4-yl)amino)-2-azaspiro[3.3]heptan-2-yl)ethanone], the figures for the pIC50 on JAK1, at JAK3 and at JAK2 were 6.00 to 7.00, at most 5.00 and 6.00 to 7.00, respectively.
On to `CCC(=O)N1CC2(CC(N(C)c3ncnc4[nH]ccc34)C2)C1` [Compound 5, 1-(6-(methyl(7H-pyrrolo[2,3-d]pyrimidin-4-yl)amino)-2-azaspiro[3.3]heptan-2-yl)propan-1-one], for which the figures for the pIC50 at JAK1, at JAK3 and at JAK2 were 6.00 to 7.00, 5.00 to 6.00 and 6.00 to 7.00, respectively.
Regarding `CCS(=O)(=O)N1CC2(CC(N(C)c3ncnc4[nH]ccc34)C2)C1` [Compound 6, N-(2-(ethylsulfonyl)-2-azaspiro[3.3]heptan-6-yl)-N-methyl-7H-pyrrolo[2,3-d]pyrimidin-4-amine], the pIC50 at JAK1 is 6.00 to 7.00; at JAK3, at most 5.00; on JAK2 it was 6.00 to 7.00.
Consider `COC(=O)N1CC2(CC(N(C)c3ncnc4[nH]ccc34)C2)C1` [Compound 7, methyl 6-(methyl(7H-pyrrolo[2,3-d]pyrimidin-4-yl)amino)-2-azaspiro[3.3]heptan-2-carboxylate], for which the pIC50 at JAK1 is 6.00 to 7.00; on JAK3 it was 5.00 to 6.00; at JAK2, 5.00 to 6.00.
Regarding `CCOC(=O)N1CC2(CC(N(C)c3ncnc4[nH]ccc34)C2)C1` [Compound 8, ethyl 6-(methyl(7H-pyrrolo[2,3-d]pyrimidin-4-yl)amino)-2-azaspiro[3.3]heptane-2-carboxylate], the results for the pIC50 on JAK1, at JAK3 and on JAK2 were 6.00 to 7.00, 5.00 to 6.00 and 5.00 to 6.00, respectively.
For the compound `CN(c1ncnc2[nH]ccc12)C1CC2(C1)CN(C(=O)c1cccnc1)C2` [Compound 9, (6-(methyl(7H-pyrrolo[2,3-d]pyrimidin-4-yl)amino)-2-azaspiro[3.3]heptan-2-yl)(pyridin-3-yl)methanone], the pIC50 on JAK1 was 7.00 to 8.00; at JAK3, 5.00 to 6.00; on JAK2, 6.00 to 7.00.
Regarding `CN(c1ncnc2[nH]ccc12)C1CC2(C1)CN(C(=O)CCC#N)C2` [Compound 10, 4-(6-(methyl(7H-pyrrolo[2,3-d]pyrimidin-4-yl)amino)-2-azaspiro[3.3]heptan-2-yl)-4-oxobutanenitrile], the figures for the pIC50 on JAK1, on JAK3 and on JAK2 were 7.00 to 8.00, 5.00 to 6.00 and 6.00 to 7.00, respectively.
On to `CN(c1ncnc2[nH]ccc12)C1CC2(C1)CN(C(=O)c1cccc(C#N)c1)C2` [Compound 11, 3-(6-(methyl(7H-pyrrolo[2,3-d]pyrimidin-4-yl)amino)-2-azaspiro[3.3]heptane-2-carbonyl)benzonitrile], for which the values for the pIC50 at JAK1, on JAK3 and at JAK2 were 7.00 to 8.00, 5.00 to 6.00 and 6.00 to 7.00, respectively.
For `CN(c1ncnc2[nH]ccc12)C1CC2(C1)CN(C(=O)C1CCC(=O)CC1)C2` [Compound 12, 4-(6-(methyl(7H-pyrrolo[2,3-d]pyrimidin-4-yl)amino)-2-azaspiro[3.3]heptane-2-carbonyl)cyclohexanone] the same measures were 7.00 to 8.00, 5.00 to 6.00 and 6.00 to 7.00.
As for `CN(c1ncnc2[nH]ccc12)C1CC2(C1)CN(C(=O)c1cccc(C(F)(F)F)c1)C2` [Compound 13, (6-(methyl(7H-pyrrolo[2,3-d]pyrimidin-4-yl)amino)-2-azasprio[3.3]heptan-2-yl)(3-(trifluoromethyl)phenyl)methanone], the pIC50 is 6.00 to 7.00 at JAK1, 5.00 to 6.00 on JAK3 and 5.00 to 6.00 on JAK2.
Regarding `CN(c1ncnc2[nH]ccc12)C1CC2(C1)CN(C(=O)Cc1ccc(C#N)cc1)C2` [Compound 15, 4-(2-(6-(methyl(7H-pyrrolo[2,3-d]pyrimidin-4-yl)amino)-2-azaspiro[3.3]heptan-2-yl)-2-oxoethyl)benzonitrile], the pIC50 was 6.00 to 7.00 on JAK1, 5.00 to 6.00 on JAK3 and 5.00 to 6.00 at JAK2.
As to `CN(c1ncnc2[nH]ccc12)C1CC2(C1)CN(C(=O)CCS(C)(=O)=O)C2` [Compound 16, 1-(6-(methyl(7H-pyrrolo[2,3-d]pyrimidin-4-yl)amino)-2-azaspiro[3.3]heptan-2-yl)-3-(methylsulfonyl)propan-1-one], the pIC50 is 6.00 to 7.00 on JAK1, 5.00 to 6.00 on JAK3 and 5.00 to 6.00 on JAK2.
On to `CN(c1ncnc2[nH]ccc12)C1CC2(C1)CN(C(=O)c1cccc(OC(F)(F)F)c1)C2` [Compound 17, (6-(methyl(7H-pyrrolo[2,3-d]pyrimidin-4-yl)amino)-2-azaspiro[3.3]heptan-2-yl)(3-(trifluoromethoxy)phenyl)methanone], for which the pIC50 was 6.00 to 7.00 on JAK1, at most 5.00 at JAK3 and 5.00 to 6.00 on JAK2.
For `CN(c1ncnc2[nH]ccc12)C1CC2(C1)CN(C(=O)c1cnccn1)C2` [Compound 18, (6-(methyl(7H-pyrrolo[2,3-d]pyrimidin-4-yl)amino)-2-azaspiro[3.3]heptan-2-yl)(pyrazin-2-yl)methanone] the same measures were 6.00 to 7.00, at most 5.00 and 5.00 to 6.00.
